Like-named read-outs stand apart in the source and are kept apart here.
Key:
H3KC9me3 oligonucleosome = test: ITC, H3KC9me3 oligonucleosome; format: binding, Xenopus laevis; settings: for Kd: read-out: Kd (apparent dissociation constant)
Description: Mononucleosomes were reconstituted on a 187 bp DNA fragment containing the ‘601' sequence flanked on each site by a linker of 20 bp[55]. Oligonucleosomes were reconstituted on a 12 × 200 bp × 601 template. Plasmids carrying the respective inserts were purified using a Giga kit (Qiagen, Hilden, Germany). Templates for reconstitution were released from plasmids by restriction digest with BsoBI for mononucleosomes and a mix of DdeI, BfuCI, HaeII and EcoRI for oligonucleosomes. To separate vector backbone from DNA used for chromatin assembly stepwise precipitation with polyethylene glycol (PEG) 6000/0.5 M NaCl was carried out (final PEG concentration 2–9% and 20% (w/v)). DNA pellets were washed with 70% (v/v) ethanol and dissolved in water. Double stranded, short, biotinylated DNA linkers were ligated to the DNA template before chromatin reconstitution.
ITC measurements were performed on a iTC200 calorimeter (Microcal, Malvern, UK) at 25°C in binding buffer (10 mM triethanolamine (pH 7.5), 20 or 150 mM NaCl, 0.1 mM EDTA). Reaction heats were recorded by sequences of 37 injections of 1.8 mM hHP1β, spaced at 120 s intervals, into 250 μl of 60 μM H3 peptides, nucleosomes or oligonucleosomal arrays under constant stirring at 1,000 r.p.m. (injection #1–10: 0.5 μl each; injection #11–32: 1 μl each; injection #33–37: 2 μl each). Heats of dilution, obtained by the titration of hHP1β into buffer, were substracted from raw data before analysis. Raw data were integrated, normalized and the apparent heat change (Δq) of the reaction was plotted against the molecular ratio using the Origin software. For the determination of apparent enthalpy changes (ΔHapp), the molar association constant (KA), and the stoichiometry (n) of the interaction, non-linear least-square fitting of the Δq values was performed by the Origin software using a binding model of one set of identical binding sites.
Figure S4 Hiragami-Hamada et al. […]
Supplementary Figure 4: Quantitative analysis of interaction of hHP1β with H3K9me3-peptides and
(a) ITC measurements of H3K9me3-peptide/hHP1β WT interaction at 20 mM NaCl (left) and 150 mM
NaCl (right). Upper panels, raw data of heat release upon stepwise injection of recombinant protein into
solution of peptide; lower panels, plots of integrated heats of protein injections vs. molar ratio of hHP1β
WT per peptide calculated by MicroCal software. Injections #1-10: 0.5 µl; injections #11-32: 1 µ l;
(b) ITC measurements as in (a) but with H3K C9me3- oligonucleosomal arrays. […]

H3K9me3 mononucleosome = test: SPR, immobilized (symmetric) H3K9me3 mononucleosome; format: binding, Xenopus laevis
Protocol: SPR measurements were performed on a Biacore 2000 instrument (GE Healthcare, Buckinghamshire, UK) at 298 K in 10 mM triethanolamine (pH 7.5), 150 mM NaCl, 0.1 mM EDTA, 1 mM DTT, 0.005% (v/v) Tween-20. Biotinylated ligands were immobilized on streptavidin-coated sensor chips SA (GE Healthcare, Buckinghamshire, UK). Before immobilization, sensor chips were conditioned as described by the manufacturer. To obtain low surface densities (5–24 RU), 5 nM biotinylated H3 peptide was injected at a low rate of 10 μl min^−1 using varying contact times. High surface densities (>700 RU) were prepared by injecting […] peptide (10 μl min^−1) until the SA surface was saturated. Peptide-containing chips were regenerated by applying three short pulses of 0.05% (w/v) SDS followed by an injection of 1.5 M NaCl for baseline stabilization. For binding assays, hHP1β proteins were injected at […] (serial twofold dilutions) for 2 min (30 μl/min). Dissociation was recorded for up to 5 min. A streptavidin surface without ligands served as reference. In addition, blank runs were performed for double referencing. Data evaluation was performed by steady-state analysis assuming a Langmuir 1:1 binding model using BIAevaluation 4.1 and Prism 5.04 (GraphPad, CA, USA) software. Binding to the unmodified peptides was analysed with maximum binding (RUmax) set to the corresponding values obtained with the modified peptides.
Figure S8 Hiragami-Hamada et al. […]
Supplementary Figure 8: hHP1β binds nucleosomes as dimer. […]
RU. Injection series are from 0.024 to 50 µM protein concentration. […]
(f) SPR response traces of injection of hHP1β WT into Biacore cells containing biotinylated, symmetrically modified H3K9me3-mononucleosomes (i.e. both H3-tails carry H3K9me3) immobilized […]
(also on this page, place not known: dimer . hHP1 β H3K9me3 - se nsory ( b) site -specific ( b) hHP1 β ( d) site -specific hHP1 β modifi ed H3K9me3 -mononucleosomes H3 -tails -30 -50 -8 -4 200 -10 110 -50 -10 -30 [μM] [μM] -10 190 150 -10 110 200 -10 110 μl/min μl/min μl/min -50 150 response [RU] response [RU] response [RU] response [RU] response [RU] [μM] 10 50 response [RU]40 0 0 [μM] 10 30 50 response [RU] 40 0 0 40 [μM] 10 30 50 response [RU] 140 40 0 120 0 40 response [RU] response [RU] response [RU] Kd Kd μM Kd μM 0.8 0.6 0.4 0.2 0 1 1.0 0.8 0.6 0.4 0.2 0.0 mass fraction) […]
on a sensory chip via covalently coated streptavidin. Immobilized mononucleosome was at 950 RU.
Injection series are from 0.024 to 50 µM protein concentration.
(g) Blot of signal over concentration of the titration in (f) to deduce an apparent Kd value. For reference, fitting of the data to a one and two site- specific binding model is shown.
(h) Same analysis as in (f) but with hHP1β I161A. […]

[1] = SPR titration 0.024 to 50 µM, symmetrically modified mononucleosome at 950 RU, one site-specific binding, read-out: apparent Kd (Supplementary Fig. 8g,i)
[2] = SPR, 150 mM NaCl, pH 7.5, 298 K, steady-state, WT value based on fitting to a one site-specific binding model, read-out: Kd (apparent dissociation constant)

Substance | Kd (apparent dissociation constant) (H3KC9me3 oligonucleosome; 20 mM NaCl, pH 7.5, 25°C, NB, not binding) | Kd (H3KC9me3 oligonucleosome; 150 mM NaCl, pH 7.5, 25°C) | Kd (H3K9me3 mononucleosome; [1]) | Kd (H3K9me3 mononucleosome; [2]) | reduced interaction with H3KC9me3 oligonucleosomes compared with hHP1β WT (H3KC9me3 oligonucleosome; 150 mM NaCl)
hHP1β WT: recombinant human heterochromatin protein 1β (GenBank NM_001127228), 185 aa | could not detect any binding | 11 ± 2 µM | 0.92 µM | 1 ± 0.2 µM | 
hHP1β I161A: CSD point mutant of hHP1β incapable of dimerization |  | 132 ± 24 µM | 4.3 µM | 5.2 ± 0.6 µM | 12 fold
